Assay results from ChEMBL document CHEMBL3108695, “Inhibitors of factor d may provide a treatment for age-related macular degeneration” (ACS Med Chem Lett, 2014).

Biological target: Complement factor D (Homo sapiens, UniProt P00746)
Experiment: Inhibition of recombinant human factor D expressed in Escherichia coli using Z-Lys-thiobenzyl and 2,4-dinitrobenzenesulfonyl-fluoresceine as substrate preincubated for 1 hr followed by substrate addition by spectrofluorimetric analysis

Chain of Complement factor D (P00746 whole entry): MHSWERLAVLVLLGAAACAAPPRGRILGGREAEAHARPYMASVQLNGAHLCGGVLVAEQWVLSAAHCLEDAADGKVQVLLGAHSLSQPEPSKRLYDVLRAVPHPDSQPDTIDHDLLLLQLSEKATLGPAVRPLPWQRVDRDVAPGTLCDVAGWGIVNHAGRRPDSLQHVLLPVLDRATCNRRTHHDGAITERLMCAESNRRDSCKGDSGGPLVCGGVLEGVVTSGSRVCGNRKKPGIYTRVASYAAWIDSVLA

## NC(=O)c1nn(CC(=O)N2[C@@H]3C[C@@H]3C[C@H]2C(=O)Nc2cccc(Br)n2)c2cnc(CF)cc12
  IC50: 2 nM
